# Marks after values point to notes of the source that are not given here.
# Tests used:
# Assay type in all cases: in vivo, rat
# [1] = tested on: MIA-induced osteoarthritis in Sprague-Dawley rats; experiment: Pain sensitivity (paw withdrawal / compression threshold, Randall-Salitto) in MIA-induced OA model; details: Diclofenac 10, UP1306 400, UP446 250, Composition 650 mg/kg; for Compression threshold (Mean ± SD): oral
# Protocol: Animals were provided with fresh water and rodent chow diet # T2018 (Harlan Teklad, 370W, Kent, WA, USA) ad libitum and were housed in a temperature-controlled room (22.2° C.) on a 12 h light-dark cycle.
# [2] = tested on: MIA-induced osteoarthritis in Sprague-Dawley rats; experiment: Bone histomorphometry (Micro CT) in concurrent MIA-induced osteoarthritis model
# Protocol: Male Sprague-Dawley (SD) rats weighing 170˜230 g (6 weeks of age) were purchased and acclimated for one week. […] Anesthetized rats were injected with 0.8 mg of MIA in 50 μl saline solution into the intra-articular pocket at 1 hour after sample treatments. And then samples were administrated daily with gastric tube for 6 weeks. Bone histomorphometry was evaluated on both femur and tibia per knee joint by Micro CT scan using an Inveon™ unit (Siemens Healthcare USA, Inc., Pennsylvania, USA) at Korea Basic science institute, Ochang, Korea. BV/TV as an indicator of trabecular bone volume is the ratio of the trabecular bone volume to the total volume. BMD used as an indicator of osteoporosis and fracture risk. Therefore, we checked those markers whether GM has the efficacy on the osteoporosis. […] Anesthetized rats were injected with 0.8 mg of MIA in 50 μl saline solution into the intra-articular pocket at 1 hour after sample treatments. Samples were administrated daily with gastric tube for 6 weeks. Bone histomorphometry was evaluated on both femur and tibia per knee joint by Micro CT scan using an Inveon™ unit (Siemens Healthcare USA, Inc., Pennsylvania, USA) at Korea Basic science institute, Ochang, Korea. BV/TV as an indicator of trabecular bone volume is the ratio of the trabecular bone volume to the total volume. BMD used as an indicator of osteoporosis and fracture risk.
# [3] = tested on: MIA-induced osteoarthritis in Sprague-Dawley rats; experiment: Bone histomorphometry (Micro CT) in therapeutic MIA induced osteoarthritis model
# Protocol: Male Sprague-Dawley (SD) rats weighing 170˜230 g (6 weeks of age) were purchased and acclimated for one week. […] Anesthetized rats were injected with 0.8 mg of MIA in 50 μl saline solution into the intra-articular pocket. One week after MIA induction, samples were administrated daily with gastric tube for 6 weeks. Bone histomorphometry was evaluated on both femur and tibia per knee joint in rats from the MIA-induced osteoarthritis model by Micro CT scan using an Inveon™ unit (Siemens Healthcare USA, Inc., Pennsylvania, USA) at Korea Basic science institute, Ochang, Korea. BMD was used as an indicator of osteoporosis and fracture risk; BV/TV as an indicator of trabecular bone volume refers to the ratio of the trabecular bone volume to the total volume; BS/BV as an indicator of trabecular turnover refers to the ratio of the trabecular bone surface to the trabecular bone volume of a region of interest.
# [4] = tested on: MIA-induced osteoarthritis in Sprague-Dawley rats; experiment: Histopathology of femorotibial joint, modified Mankin score, MIA-induced OA model
# Protocol: Treatment started a week before MIA injection. […] The standardized blends for each treatment groups are defined as UP446=1A:4S, UP1306=1A:2M and the composition at the given dosage=0.282A:0.308S:0.410M where “A”, “S” and “M” stands for acacia, scutellaria and moms, respectively. On the induction day, isoflurane (Lot #B66H15A, Piramal Enterprise Ltd. Andhra Pradesh, India) anesthetized rats were injected with 0.8 mg of MIA (Lot #A0352046, Acros Organics, New Jersey, USA) in 50 μL saline solution into the intra-articular pocket of left femorotibial (knee) joint using 26 G needle an hour after treatment. Normal control rats were injected with an equal volume of saline. […] Body weights were measured once a week to calculate the respective weekly dosage of each group. The merit of combining UP1306 and UP446 was then evaluated using the Colby's equation (Colby, 1967). Pain sensitivity percent inhibition values were used to determine the calculated efficacy values and compared to the observed percent inhibition values of the composition.
# At necropsy, animals were asphyxiated with CO2 and the femorotibial joint was carefully dissected out, fixed in 10% buffered formalin and sent to Nationwide Histology (Veradale, WA, USA) for further histopathology analysis. The fixed specimens were then decalcified with Calci-Clear Rapid for 1 and a half days and embedded in paraffin. Standardized 5 μm serial sections were obtained at the medial and lateral midcondylar level in the sagittal plane and were stained with hematoxylin and eosin (HE) and Safranin O-fast green to enable evaluation of proteoglycan content. A modified Mankin system (Mankin et al., 1981) was used to score structural and cellular alterations of articular components as indications of disease progression and/or treatment efficacy. The histological analysis was conducted by a certified Pathologist at Nationwide Histology.
# [5] = MIA 1 hour after sample treatment, daily 6 weeks, Diclofenac 10 mg/kg, GM 500 mg/kg, mean ± SD
# [6] = treatment from one week after MIA, daily 6 weeks, Diclofenac 10 mg/kg, GM 500 mg/kg, mean ± SD
# [7] = MIA 0.8 mg/joint, Diclofenac 10, UP1306 400, UP446 250, Composition 650 mg/kg
compound,measurement,setting,value
O=C(O)Cc1ccccc1Nc1c(Cl)cccc1Cl [Diclofenac],"Percent change of vehicle, Pain sensitivity inhibition",[1]; Baseline,0.9%
same,Compression threshold (Mean ± SD),[1]; Baseline,244.1 ± 3.8
same,"Percent change of vehicle, Pain sensitivity inhibition",[1]; Week-1,40.4* %
same,Compression threshold (Mean ± SD),[1]; Week-1,190.8 ± 1.1
same,"Percent change of vehicle, Pain sensitivity inhibition",[1]; Week-2,28.8* %
same,Compression threshold (Mean ± SD),[1]; Week-2,171.8 ± 0.6
same,"Percent change of vehicle, Pain sensitivity inhibition",[1]; Week-3,31.2* %
same,Compression threshold (Mean ± SD),[1]; Week-3,170.1 ± 2.2
same,"Percent change of vehicle, Pain sensitivity inhibition",[1]; Week-4,30.8* %
same,Compression threshold (Mean ± SD),[1]; Week-4,171.6 ± 0.6
same,"Percent change of vehicle, Pain sensitivity inhibition",[1]; Week-5,31.0* %
same,Compression threshold (Mean ± SD),[1]; Week-5,170.9 ± 1.1
same,BMD (mg/cm3),[2]; [5],982.3 ± 19.44 mg/cm3
same,BV/TV (%),[2]; [5],71.89 ± 5.43%
same,BMD compared with vehicle group,[2]; concurrent MIA model,significantly increased
same,BV/TV compared with vehicle group,[2]; concurrent MIA model,tendency to increase
same,BV/TV compared with vehicle group,[3]; therapeutic MIA model,decreasing tendency
same,BMD (mg/cm3),[3]; [6],896.2 ± 29.4 mg/cm3
same,BS/BV,[3]; [6],9.11 ± 1.41
same,BV/TV (%),[3]; [6],65.35 ± 7.75%
same,reduction in overall structural abnormality,"[4]; AM 400, UP446 250, AU 650, Diclofenac 10 mg/kg",51.4%
same,reduction in matrix GAG loss (Safranin O),"[4]; Diclofenac 10, AM 400, UP446 250, AU 650 mg/kg",46.0%
same,Bone at Articular surfaces (modified Mankin score 0-6),[4]; [7],0.70 ± 0.24
same,Fibrovascular proliferation (modified Mankin score 0-6),[4]; [7],1.55 ± 0.69
same,Inflammation/ Cellular infiltration (modified Mankin score 0-6),[4]; [7],0.55 ± 0.15
same,Matrix GAGs (modified Mankin score 0-6),[4]; [7],1.44 ± 0.38
same,Structural abnormality (modified Mankin score 0-6),[4]; [7],1.23 ± 0.36
